Experimental data reported in US8937096B2, “Use of benzo-fused heterocyle sulfamide derivatives for the treatment of mania and bipolar disorder” (priority 2005, dated 2015).
Like-named read-outs stand apart in the source and are kept apart here.

How the values were obtained:
submissive rats = assay: Dominant-Submissive Relations (DSR) assay: Reduction of Submissive Behavior Model (RSBM) of depression; type: in vivo, rat
Procedure: (§1) The DSR assay is divided into two models: Reduction of Dominant Behavior Model (RDBM) of mania and Reduction of Submissive Behavior Model (RSBM) of depression. The RDBM, wherein the dominant animals are treated with test compound, is predictive of the ability of the test compound to treat mania. The RSBM, wherein the submissive animals are treated with test compound, is predictive of the ability of the test compound to treat depression.
(§2) Male Sprague Dawley rats (140 to 160 g) from Charles River Laboratories Wilmington, Mass. were used in this assay. Shipments of rats were received at two-week intervals. Each shipment went through five-day quarantine, one-week acclimation period, and one-week selection process, followed by five-weeks of drug or vehicle treatment to those pairs selected.
(§3) Rats were housed four per cage. Access to food was restricted to one hour per day after testing on Monday through Thursday. After testing on Friday, rats had free access to food until being fasted again on Sunday. At no time were the rats deprived of water. The food deprivation periods used had little effect on weight gain as the average weight of rats was about 300 g at the end of the study. At the conclusion of experiment rats were sacrificed by decapitation, the trunk blood and brains were collected for in vitro experiments and drug concentration measurements.
(§4) The basic testing apparatus consisted of two chambers connected with a tunnel only large enough to allow one rat to pass through at a time. On the floor, at the mid-point of the tunnel was a container of sweetened milk. This basic apparatus was replicated, so that a total of four pairs of rats can be video tracked simultaneously. The camera can distinguish rats marked by different colors. Thus, the rats' heads were colored for the purpose of video tracking, red in one cage and yellow in the other cage. Only one animal at a time can have comfortable access to the feeder, but both animals can drink milk during the five-minute daily session. During the five-minute daily sessions, time spent in the feeder zone by each rat was recorded by the video tracking software and saved into a text file.
The test began with a random assignment of rats into pairs. Each member of a pair was placed in an opposite chamber of the testing apparatus. The time spent in the feeder zone by each animal was recorded. During the first week (five days) of testing the animals habituate to the new environment. Dominance was assigned to the animal with the highest score during the second week of testing if three criteria were achieved. First, there must have been a significant difference (two-tailed t-test, P<0.05) between the average daily drinking scores of both animals. Second, the dominant animal score must have been at least 25% greater than the submissive animal's score. Finally, there must have been no “reversals” during the pair selection week where the putative submissive rat out-scored its dominant partner on isolated occasions. Ideally there were minimal reversals during the acclimation week as well. About twenty-five to thirty-three percent of the initial animal pairs achieved these criteria and only these pairs were continued in the study. […]
(§5) Significant differences between time spent on the feeder by dominant and submissive rats were determined by ANOVA using GraphPad Prism software (GraphPad Software, Inc. San Diego, Calif.) followed by a two-tailed t-test (P<0.05). Comparisons were made between treatment groups using normalized dominance level values in paired animals. The dominance level is a value that measures social relation between paired subjects. Dominance level (DL)=FTD−FTS where FTD is the feeder time of dominant rats and FTS is the feeder time of submissive rats. The normalization was conducted according to the formula: Dominance Level(week n in %)=(Dominance Level(week n))/(Dominance Level(week 2) […]

CH3/HeJ mice = assay: Tail Suspension Test (Acute); type: in vivo, mouse; settings: for Immobility Emax % of C / Mobility Emax % of C: p.o., CH3/HeJ mice, 7-min session; for ED50: Mus musculus, po, 7 min
Procedure: In the tail suspension test (TST) for evaluating compounds for anti-depressant activity, mice are suspended by their tails to a metal or plastic rod using clip or scotch tape. The test is usually quite short, 5-7 min, and the amount of time the mice spend immobile is recorded either manually or with an automated device. Agents which have antidepressant activity, decrease the duration of immobility of mice in this test.
The basic apparatus for the tail suspension assay consisted of a yellow plastic chamber (91×45×10 cm) divided for four arenas 25, 20, 20 and 25 cm wide separated by yellow plastic walls 0.75 cm thick. Mice were suspended by their tails using a rubber clip (7 cm long) attached to the plastic rod that was placed on the top of a testing chamber half way through its deep dimension. Each experimental session was videotaped and analyzed for four animals in the real time by computer software (“Depression Scan” Clever Sys Inc.). The computer justification of immobility was calibrated with the use of animals dosed with lorazepam while justification of movement was calibrated with the high dose of desipramine treated animals. […] The settings were adjusted separately for dark (CH3/HeJ and C57BI/6J strains) and white mice (Balb/cJ and A/J strains). A yellow background was used for dark mice and a blue background was used to record movements of white mice.
The ability of a test compound to decrease the duration of immobility, or increase mobility was measured using the TST procedure described above.
Data were analyzed using GraphPad Prism software (GraphPad Software, Inc. San Diego, Calif.). For the comparison of the effect of different doses for various drugs on immobility in the TST one-way analyses of variance (ANOVA) were used followed by Dunnett's multiple comparison test. […] The ED50 and Emax values were compared using two-way ANOVA and Bonferroni post-hoc test.
Positive controls included duloxetine (DLX), venlafaxine (VLX) and desipramine (DMI) which were dissolved in 0.5% methylcellulose and lorazepam (LOR) which was suspended in 0.5% of methylcellulose in water by sonication. All drugs and vehicles were administered orally (p.o.) by gavage in a volume of 10 mL/kg.
The mice were ordered 5 weeks old and at the beginning of experiment their weight was 20±5 g. Animals were housed in groups of four in plastic cages at an ambient temperature of 21° C. to 23° C. with an automated 12/12 hours light/dark cycle and access to water and a commercial rodent food ad libitum.
Each experiment consisted of seven treatment groups with four animals per group. A total of 28 animals per experiment were used. Every two consecutive experiments (1 & 2, 3 & 4, 5 & 6 and 7 & 8) were exact replicas of each other. […] One treatment group of four animals in each experiment was a vehicle treated group. In addition to the vehicle treated group, the effects of DMI at 6 mg/kg, 12 mg/kg, 30 mg/kg, 60 mg/kg and 120 mg/kg and LOR at 5 mg/kg were tested in experiments 1 and 2. […] In experiments 5 and 6 the effects of DLX at 6 mg/kg, 12 mg/kg, 30 mg/kg, 60 mg/kg, 120 mg/kg and LOR at 5 mg/kg were tested.

Sprague Dawley rats = assay: Forced Swim Test (Acute); type: in vivo, rat
Procedure: The Forced Swim test (FST) is a commonly used procedure to screen compounds for possible antidepressant properties. This test is also known as the behavioral despair test. Rodents placed in […] tanks filled with water present a wide variety of escape or immobility behaviors. Antidepressant drugs from different classes markedly increase escape behaviors and/or decrease latency or duration of immobility.
Venlafaxine and desipramine were dissolved in water. All drugs and their vehicles were administered orally (p.o.) by gavage in a volume of 5 mL/kg.
Male Sprague Dawley rats (140 to 160 g) from Charles River Laboratories Wilmington, Mass. were used. The animals went through a five-day quarantine period before being subjected to the experimental procedure.
Animals were housed in groups of four in plastic cages at an ambient temperature of 21° C. to 23° C. with an automated 12 hour light/dark cycle and access to water and commercial rodent food ad libitum. Animals were not handled more than for the routine bedding change prior to pre-test swim session.
Each experiment consisted of seven treatment groups with n=4 animals per group. A total of 28 animals per experiment were used. Two consecutive experiments (1 and 2, 3 and 4, and 5 and 6) were exact replicas of each other. […] One treatment group of n=4 animals in each experiment was a vehicle treated group. […] In experiments 5 and 6 the effects of venlafaxine and maprotyline at 12 mg/kg, 30 mg/kg, and 60 mg/kg were tested.
The basic apparatus consisted of a cylinder (46 cm tall×˜20 cm diameter) filled with water to 30 cm deep, at a temperature of 25±1° C. The automated version of the FST was used to perform the experiments. Plumbing for automatic filling and emptying water connected the four cylinders. Cylinders were placed in the dividing chambers 25 cm wide to separate animals visually. Each 5-minute experimental session was videotaped and analyzed in real time by computer software (Clever Systems, Inc.) for four animals at a time. The immobility, swimming, climbing and escape times were recorded by the software. The four activities are defined as follow. Immobility: the animal floats motionlessly or makes only those movements necessary to keep its head above water; Climb: the animal vigorously moves vertically while scratching the wall around the cylinder; Swim: the animal moves horizontally around in the cylinder more than necessary to keep its head above water; and Escape: sum of all vigorous active movements.
The ability of a test compound to decrease the duration or frequency of immobility, or changes in swimming, climbing and escape times, was measured using the FST procedure described above. […] The analysis of the results in the studies described was focused on the immobility time during 5-minute test session.
There were two swim sessions in each experiment. First, a pre-test swim session for 15 minutes was performed. Following 48 hours later was a test session of 5-minute duration. Upon completion of a swim session, each animal was placed under a heat lamp in a cage with soft bedding for approximately 15 minutes to prevent hypothermia.
Animals were pre-treated with a vehicle or test compound after completing the pre-test swim session, then 24 hours later and then shortly prior to the 5-minute test session; i.e., three injections were given to each animal between the two swim sessions that occurred on 3 consecutive days.
Data were analyzed using GraphPad Prism software (GraphPad Software, Inc. San Diego, Calif.). For the comparison of the effect of different doses for various drugs on immobility in the FST one-way ANOVA was used followed by Dunnett's multiple comparison test. […] The ED50 and Emax values were statistically compared using two-tail t-test.

dominant rats = assay: Dominant-Submissive Relations (DSR) assay: Reduction of Dominant Behavior Model (RDBM) of mania; type: in vivo, rat
Procedure: as §1, §2, §3, §4
The test began with a random assignment of rats into pairs. Each member of a pair was placed in an opposite chamber of the testing apparatus. The time spent in the feeder zone by each animal was recorded. During the first week (five days) of testing the animals habituate to the new environment. Dominance was assigned to the animal with the highest score during the second week of testing if three criteria were achieved. First, there must have been a significant difference (two-tailed t-test, P<0.05) between the average daily drinking scores of both animals. Second, the dominant animal score must have been at least 25% greater than the submissive animal's score. Finally, there must have been no “reversals” during the pair selection week where the putative submissive rat out-scored its dominant partner on isolated occasions. Ideally there were minimal reversals during the acclimation week as well. About twenty-five to thirty-three percent of the initial animal pairs achieved these criteria and only these pairs were continued in the study.
as §5

[1] = tested on: hippocampal kindled seizures; assay: Rat Hippocampal Kindling Test (Interruption of Kindled State); type: in vivo; settings: reference drugs; suppression at doses associated with toxicity
Procedure: In the present rapid hippocampal kindling model adult male Sprague-Dawley rats (300-400 g) were surgically implanted with bipolar electrodes placed in the hippocampus. […] One week later, the rats received 2-3 supra-threshold stimulations delivered every 30 min before treatment with test compound, to ensure stability of the behavioral seizure stage and after-discharge duration. Fifteen minutes after the last stimulation, a single dose of vehicle or test compound was administered i.p. (intraperitoneally). After 15 min, each rat was then stimulated every 30 min for 3 to 4 h. After each stimulation, individual seizure scores and after-discharge durations were recorded. The group mean±SEM were calculated for each parameter. Eight rats per dose and a minimum of four doses were used to establish an ED50 value. Efficacy was measured as the ability of a compound to modify the seizure score (severity of spread) and after-discharge duration (ADD; excitability) of the generalized seizures.
Thus, according to the theories presented in current literature (Ghaemi, S. N., Boiman, E. E., and Goodwin, F. K., Soc. of Bio. Psychiatry, (1999), vol. 45, pp 137-144; Stoll, A. L., and Severus, W. E., Harvard Rev. Psychiatry, July/August (1996), Vol. 4, No. 2, pp 77-89) a decrease in seizure score and/or ADD may also be predictive of the ability of a test compound to treat the cycling associated with bipolar disorder.

CNCCC(Oc1ccc(C(F)(F)F)cc1)c1ccccc1 (stereo not shown) [fluoxetine, reference compound]
submissiveness during first week of treatment (submissive rats; fluoxetine 10 mg/kg i.p., Compound #8 treated groups p.o.): increased submissiveness during first week of treatment | significant difference between dominant and submissive rats lost (submissive rats; submissive rats treated i.p. at 10.0 mg/kg): lost after third week of treatment

CNCCCN1c2ccccc2CCc2ccccc21 [DMI, desipramine]
Immobility Emax % of C (CH3/HeJ mice): 38.5 % of C | Mobility Emax % of C (CH3/HeJ mice): 195.7 % of C | Emax (immobility) in the FST (Sprague Dawley rats; p.o.): 50.0 ± 8.4 s | doses at which effect on immobility was statistically significant vs vehicle (Sprague Dawley rats; p.o.): 6 mg/kg, 12 mg/kg, 30 mg/kg, and 60 mg/kg

CNCCCC12CCC(c3ccccc31)c1ccccc12 [maprotyline]
doses at which effect on immobility was statistically significant vs vehicle (Sprague Dawley rats; p.o.): 30 mg/kg and 60 mg/kg

CNCC[C@H](Oc1cccc2ccccc12)c1cccs1 [DLX, duloxetine]
ED50 (CH3/HeJ mice; read-out: Immobility ED50): 31.4 mg/kg | ED50 (CH3/HeJ mice; read-out: Mobility ED50): 61.5 mg/kg | Immobility Emax % of C (CH3/HeJ mice): 80.4 % of C | Mobility Emax % of C (CH3/HeJ mice): 175.5 % of C

CCCC(CCC)C(=O)[O-].[Na+] [sodium valproate, reference compound]
dominance level (dominant rats; 30 mg/kg i.p. QD): decreased dominance level after the second week of treatment | difference between dominant and submissive rats lost (dominant rats; dominant rats treated i.p. QD at 30 mg/kg): lost after first week of treatment | permissiveness of the treated dominant rats (dominant rats; treated dominant rats permitted submissive partners to increase time on the feeder): observed to increase

[Cl-].[Li+] [lithium chloride, reference compound]
dominance level effect vs control (dominant rats; 100 mg/kg): significantly different from control only after the third week of treatment

CCC1(C)CC(=O)NC1=O (stereo not shown) [Ethosuximide]
seizure activity in the hippocampal kindling model [1]: ineffective

O=C1Nc2ccc(Cl)cc2C(c2ccccc2Cl)=NC1O (stereo not shown) [Lorazepam, lorazepam]
effect on the rats' immobility time (Sprague Dawley rats; 1 mg/kg p.o., negative control): no significant effect

NC(=O)N1c2ccccc2C=Cc2ccccc21 [Carbamazepine]
seizure activity in the hippocampal kindling model [1]: significantly suppressed seizure activity

O=C1NC(=O)C(c2ccccc2)(c2ccccc2)N1 [Phenytoin]
seizure activity in the hippocampal kindling model [1]: significantly suppressed seizure activity
